Results as given in ChEMBL document CHEMBL1150703, “Plants as sources of antimalarial drugs, Part 4: Activity of Brucea javanica fruits against chloroquine-resistant Plasmodium falciparum in vitro and against Plasmodium berghei in vivo” (J Nat Prod, 1987).
Converted amounts (≈) assume the structure as drawn.

Assays:
Plasmodium falciparum [1] = experiment: Antimalarial activity against multidrug-resistant Plasmodium falciparum K1 infected human erythrocytes assessed by [3H]hypoxanthine uptake; format: functional, organism-based
Mus musculus [2] = experiment: Toxicity in Plasmodium berghei N-infected TSW mice (Mus musculus) assessed as toxic deaths before day 5 at 3 mg/kg, perorally administered 3 hrs after infection daily for 4 consecutive days; format: organism-based; parameters: dose 3 mg/kg, route oral; conditions: in vivo, po
Plasmodium berghei [3] = experiment: Antimalarial activity as reduced parasitaemia at day 4 against Plasmodium berghei N infected TSW mice (Mus musculus) perorally dosed 3 hrs post infection then daily; format: functional; conditions: po
Plasmodium berghei [4] = experiment: Antimalarial activity as reduced parasitaemia at day 4 against Plasmodium berghei N infected TSW mice (Mus musculus) at 3 mg/kg peroral dose 3 hrs post infection then daily; format: functional; conditions: route oral
[5] = (§1) Toxicity in Plasmodium berghei N-infected TSW mice (Mus musculus) assessed as mortality before day 5 at 9 mg/kg, perorally administered 3 hrs after infection daily for 4 consecutive days; format: organism-based; parameters: dose 9 mg/kg, route oral; conditions: TSW, in vivo, po, read-out: Activity
Mus musculus [6] = experiment: as §1; format: organism-based; parameters: dose 9 mg/kg, route oral; conditions: in vivo, po, 3 h
Plasmodium falciparum [7] = experiment: Antimalarial activity against multidrug-resistant Plasmodium falciparum K1 in human erythrocytes as inhibition of [3H]hypoxanthine uptake; format: functional, organism-based
Plasmodium berghei [8] = experiment: Antimalarial activity as reduced parasitaemia at day 4 against Plasmodium berghei N infected TSW mice (Mus musculus) at 9 mg/kg perorally dosed 3 hrs post infection then daily; format: functional; conditions: route oral

Structure (SMILES) | IC50 (Plasmodium falciparum [1]) [µg/mL] | ED50 (Plasmodium berghei [3]) [mg/kg/day] | ED90 (Plasmodium berghei [3]) [mg/kg/day] | inhibition in vivo at 3 mg/kg (Plasmodium berghei [4]) [%] | other results
CC1=CC(=O)[C@@H](O)[C@]2(C)[C@H]3[C@@H](O)[C@H](O)[C@]4(C)OC[C@@]35[C@@H](C[C@@H]12)OC(=O)[C@H](O)[C@]54O [BRUCEINE D] | 0.015 (≈ 0.0365 µM) | 2.79 | 8.19 | 50 | Activity (Mus musculus [2]): Non-toxic
COC(=O)[C@@]12OC[C@]34[C@H]([C@@H](O)[C@@H]1O)[C@@]1(C)CC(=O)C(O)=C(C)[C@@H]1C[C@H]3OC(=O)[C@H](OC(=O)/C=C(\C)C(C)C)[C@@H]24 [BRUCEANTIN] | 0.0008 (≈ 0.00146 µM) | – | – | – | –
COC(=O)[C@]12OC[C@]34[C@H]([C@@H](O)[C@@H]1O)[C@@]1(C)CC(=O)C(O)=C(C)[C@@H]1C[C@H]3OC(=O)[C@H](OC(=O)/C=C(\C)C(C)(C)OC(C)=O)[C@@H]24 [BRUCEANTINOL] | 0.002 (≈ 0.0033 µM) | – | – | – | –
COC(=O)[C@@]12OC[C@]34[C@H]([C@@H](O)[C@@H]1O)[C@@]1(C)CC(=O)C(O)=C(C)[C@@H]1C[C@H]3OC(=O)[C@H](OC(C)=O)[C@@H]24 [BRUCEINE B] | 0.011 (≈ 0.0229 µM) | 0.9 | 2.82 | 95 | mortality at 3 h [5]: 100%
COC(=O)[C@]12OC[C@]34[C@H]([C@@H](O)[C@@H]1O)[C@@]1(C)CC(=O)C(O[C@@H]5O[C@H](CO)[C@@H](O)[C@H](O)[C@H]5O)=C(C)[C@@H]1C[C@H]3OC(=O)[C@H](OC(C)=O)[C@@H]24 [YADANZIOSIDE I] | 22 (≈ 34.3 µM) | – | – | – | –
COC(=O)[C@]12OC[C@]34[C@H]([C@@H](O)[C@@H]1O)[C@@]1(C)CC(=O)C(O)=C(C)[C@@H]1C[C@H]3OC(=O)[C@H](OC(=O)C=C(C)C)[C@@H]24 [BRUSATOL] | 0.003 (≈ 0.00576 µM) | 1.27 | 3.03 | 98 | –
COC(=O)[C@]12OC[C@]34[C@H]([C@@H](O)[C@@H]1O)[C@@]1(C)CC(=O)C(O)=C(C)[C@@H]1C[C@H]3OC(=O)[C@H](OC(=O)/C=C(\C)C(C)(C)O)[C@@H]24 [BRUCEINE C] | 0.005 (≈ 0.00886 µM) | – | – | 40 | Activity (Mus musculus [6]): Toxic
COC(=O)[C@]12OC[C@]34[C@H]([C@@H](O)[C@@H]1O)[C@@]1(C)C=C(O[C@@H]5O[C@H](CO)[C@@H](O)[C@H](O)[C@H]5O)C(=O)[C@@H](C)[C@@H]1C[C@H]3OC(=O)[C@H](OC(C)=O)[C@@H]24 [YADANZIOSIDE F] | – | – | – | – | IC50 (Plasmodium falciparum [7]): 5 µg/mL (≈ 7.78 µM)
CC1=CC(=O)[C@@H](O)[C@]2(C)[C@H]3[C@@H](O)[C@H](O)[C@]4(CO)OC[C@@]35[C@@H](C[C@@H]12)OC(=O)[C@H](O)[C@]54O [YADANZIOLIDE A] | 0.031 (≈ 0.0727 µM) | – | – | – | –
COC(=O)[C@]12OC[C@@]34[C@@H](CC5=C(C)C(=O)C(O)=C[C@]5(C)[C@H]3[C@@H](O)[C@@H]1O)OC(=O)[C@H](OC(=O)CC(C)C)[C@@H]24 [DEHYDROBRUCEINE A] | 0.046 (≈ 0.0884 µM) | – | – | – | –
COC(=O)[C@@]12OC[C@]34[C@H]([C@@H](O)[C@@H]1O)[C@@]1(C)CC(=O)C(O)=C(C)[C@@H]1C[C@H]3OC(=O)[C@H](OC(=O)CC(C)C)[C@@H]24 [BRUCEINE A] | 0.011 (≈ 0.0211 µM) | 3.36 | 26.7 | – | inhibition in vivo at 9 mg/kg (Plasmodium berghei [8]): 72%
